The record followed here is US7907999B2, “Apparatus and method for measuring physiological characteristics of an intact trachea in vitro” (priority 2006, dated 2011).

Experiment [1] has as its system epithelium of intact trachea. Nature of the experiment: Transepithelial potential difference (Vt) and impedance (Rt) of intact perfused trachea in vitro. To be noted: for effect on transepithelial impedance (Rt) / effect on transepithelial potential difference (Vt): intact guinea pig tracheal segment, each agent tested four times; for effect on transepithelial impedance (Rt): current pulses 20 μA; for effect on transepithelial impedance (Rt) / effect on Vt, summary of bar graphs (on average): agent concentration and bath as in Tables 1 and 2; for effect on transepithelial potential difference (Vt): open-circuit, 37° C., agent concentration and bath (intraluminal/extraluminal) as in Tables 1 and 2; for effect on Vt, summary of bar graphs (on average): means of four preparations. Details: species or system Hartley guinea pigs. The source says: Under open circuit conditions, the first current electrode 60 (FIG. 1) introduces an electrical current into the perfusion liquid flowing into the perfusion device 12. The electrical current flows into the perfusion device, where it emanates from the inlet portion 64 (FIG. 7) and flows across the trachea wall to the second current electrode 62. The first voltage-sensing electrode 56 (FIG. 1) is in electrically continuity with the perfusion liquid in the trachea 14 (via cannula 78, tube 100, and conduits 38 and 46) and therefore senses the electrical potential inside the trachea. The second voltage-sensing electrode 58 senses the electrical potential in the extraluminal bath 54 outside of the trachea. The amplifier 18 calculates the electrical potential difference between the voltage-sensing electrodes 56, 58, which represents the transepithelial potential difference of the trachea. The amplifier 18 can also calculate the transepithelial impedance across the trachea wall based on the applied current and the measured potential difference. […] Hartley guinea pigs were anesthetized by i.p. injection of sodium pentobarbital (65 mg/kg). A 4.2-cm tracheal segment was removed and mounted on a perfusion device 12 at its in situ length. The perfusion device was placed in an extraluminal bath containing a modified Krebs-Henseleit […] solution, and was perfused at 24 ml/min with MKH solution from an intraluminal bath. Water was used as a heat transfer fluid and was supplied to the heat exchanger 20 and the outer jackets of vessels 26, 28 to maintain the temperature of the extraluminal and intraluminal baths at about 37° C. Current pulses (20 μA, 5 s duration, 50 s intervals) were delivered through the current electrodes, while the changes in the transepithelial potential difference (Vt) caused by the current pulses were monitored under open-circuit conditions. Alternatively, and as mentioned above, voltage pulses can be applied across the voltage electrodes under voltage-clamp conditions, while the changes in short circuit current are monitored. The preparation was equilibrated for 2.5 hours to allow Vt and the pressure drop (ΔP) to stabilize before the current pulses were delivered. Basal Vt (the transepithelial voltage in the basal, or steady, state of an unstimulated epithelium) was 14.8±0.8 mV. […] To determine the effects of relaxant agents, when the mechanical and bioelectric responses reached their plateau responses to MCh, the trachea was treated with agents added to the extraluminal or intraluminal bath. The agents used in this example are described in tables 1 and 2 below. The effects of the agents were analyzed statistically using student's paired t-test. P<0.05 was accepted as significant, and is indicated by an asterisk in FIGS. 8-15. The results are presented as means±SE. Each agent was tested four times. Amiloride, NPPB and bumetanide were dissolved in dimethyl sulfoxide (DMSO) (with a final concentration equal to or less than 0.04%). The other agents were prepared in MKH. Terbutaline, histamine, ouabain and bumetanide were added to the extraluminal bath; the other agents were added to the intraluminal bath. Hypersmolar solutions were prepared by adding osmolytes to MKH solution.

The test system of experiment [2] is smooth muscle of intact trachea. Nature of the experiment: Pressure drop (ΔP) of perfusion liquid through intact trachea: smooth muscle contraction/relaxation. More on the design: species or system Hartley guinea pigs. To be noted: for effect on differential pressure (ΔP), smooth muscle contraction or relaxation: intact guinea pig tracheal segment perfused at 24 ml/min, agent concentration and bath as in Tables 1 and 2, relaxation observed after pre-contraction with MCh. An excerpt: As described above, the first port 50 of the differential pressure transducer 16 is in fluid communication with the openings 82 in the first cannula 78 and the second port 52 of the differential pressure transducer 16 is in fluid communication with the openings 88 in the second cannula 84. As a result, the differential pressure transducer 16 “sees” the pressure of the perfusion liquid flowing through the trachea 14 at the openings 82 and 88 and can calculate the pressure drop (ΔP) of the perfusion liquid between these two locations (as depicted in FIG. 7). […] Hartley guinea pigs were anesthetized by i.p. injection of sodium pentobarbital (65 mg/kg). A 4.2-cm tracheal segment was removed and mounted on a perfusion device 12 at its in situ length. The perfusion device was placed in an extraluminal bath containing a modified Krebs-Henseleit […] solution, and was perfused at 24 ml/min with MKH solution from an intraluminal bath. Water was used as a heat transfer fluid and was supplied to the heat exchanger 20 and the outer jackets of vessels 26, 28 to maintain the temperature of the extraluminal and intraluminal baths at about 37° C. Current pulses (20 μA, 5 s duration, 50 s intervals) were delivered through the current electrodes, while the changes in the transepithelial potential difference (Vt) caused by the current pulses were monitored under open-circuit conditions. Alternatively, and as mentioned above, voltage pulses can be applied across the voltage electrodes under voltage-clamp conditions, while the changes in short circuit current are monitored. The preparation was equilibrated for 2.5 hours to allow Vt and the pressure drop (ΔP) to stabilize before the current pulses were delivered. Basal Vt (the transepithelial voltage in the basal, or steady, state of an unstimulated epithelium) was 14.8±0.8 mV. […] To determine the effects of relaxant agents, when the mechanical and bioelectric responses reached their plateau responses to MCh, the trachea was treated with agents added to the extraluminal or intraluminal bath. The agents used in this example are described in tables 1 and 2 below. The effects of the agents were analyzed statistically using student's paired t-test. P<0.05 was accepted as significant, and is indicated by an asterisk in FIGS. 8-15. The results are presented as means±SE. Each agent was tested four times. Amiloride, NPPB and bumetanide were dissolved in dimethyl sulfoxide (DMSO) (with a final concentration equal to or less than 0.04%). The other agents were prepared in MKH. Terbutaline, histamine, ouabain and bumetanide were added to the extraluminal bath; the other agents were added to the intraluminal bath. Hypersmolar solutions were prepared by adding osmolytes to MKH solution.

For `CCCCNc1cc(C(=O)O)cc(S(N)(=O)=O)c1Oc1ccccc1` [Bumetanide], in experiment [1], the “effect on transepithelial impedance (Rt)” value is on record as “did not effect Rt” and the “effect on transepithelial potential difference (Vt)” value was “depolarization”. The “effect on differential pressure (ΔP), smooth muscle contraction or relaxation” value (“effect on differential pressure (ΔP)” for short) in experiment [2] is recorded as “small degree of relaxation of the trachea”.
With `OC[C@@H](O)[C@@H](O)[C@H](O)[C@H](O)CO` [D-M, D-mannitol], in experiment [1], the “effect on transepithelial impedance (Rt)” value is reported as “increased Rt” and the “effect on transepithelial potential difference (Vt)” value was “depolarization”. The “effect on differential pressure (ΔP)” value in experiment [2] is listed as “relaxation”.
As to `NCCc1c[nH]cn1` [Histamine], in experiment [1], the “effect on transepithelial impedance (Rt)” value is recorded as “did not effect Rt”; the “effect on transepithelial potential difference (Vt)” value is reported as “variable Vt responses”; the “effect on Vt, summary of bar graphs (on average)” value (“effect on Vt, summary” for short) was “did not effect Vt appreciably”. In experiment [2], the “effect on differential pressure (ΔP)” value was “contraction”.
Turning to `O=C(O)c1cc([N+](=O)[O-])ccc1NCCCc1ccccc1` [NPPB], in experiment [1], the “effect on transepithelial impedance (Rt)” value is “negligible effect on Rt”; the “effect on transepithelial potential difference (Vt)” value is “depolarization caused by NPPB was slower to develop and greater in magnitude”. Also, the “effect on differential pressure (ΔP)” value in experiment [2] is given as “Neither agent affected ΔP”.
For `[Cl-].[Na+]` [NaCl], in experiment [1], the “effect on transepithelial impedance (Rt)” value is “decreased Rt” and the “effect on transepithelial potential difference (Vt)” value was “depolarization”. Also, the “effect on differential pressure (ΔP)” value in experiment [2] was “relaxation”.
Consider `C[C@@H]1O[C@@H](O[C@H]2C[C@@H](O)[C@]3(CO)[C@H]4[C@H](O)C[C@]5(C)[C@@H](C6=CC(=O)OC6)CC[C@]5(O)[C@@H]4CC[C@]3(O)C2)[C@H](O)[C@H](O)[C@H]1O` [Ouabain], for which, in experiment [1], the “effect on transepithelial impedance (Rt)” value is listed as “decrease in Rt”; the “effect on transepithelial potential difference (Vt)” value is recorded as “immediate depolarization”; the “effect on Vt, summary” value is “complete”. Also, the “effect on differential pressure (ΔP)” value in experiment [2] is reported as “delayed contraction of the trachea”.
As to `CC(C)(C)NCC(O)c1cc(O)cc(O)c1` (centres unmarked) [Terbutaline], in experiment [1], the “effect on transepithelial impedance (Rt)” value was “did not effect Rt”; the “effect on transepithelial potential difference (Vt)” value was “transient depolarization in three of the four preparations followed by slow hyperpolarization”; the “effect on Vt, summary” value is recorded as “did not effect Vt appreciably”. Also, in experiment [2], the “effect on differential pressure (ΔP)” value was “relaxation”.
On to `N=C(N)NC(=O)c1nc(Cl)c(N)nc1N` [amiloride, Amiloride], for which, in experiment [1], the “effect on transepithelial impedance (Rt)” value is reported as “increase in Rt” and the “effect on transepithelial potential difference (Vt)” value is recorded as “depolarization of the epithelium”. The “effect on differential pressure (ΔP)” value in experiment [2] is recorded as “Neither agent affected ΔP”.
As usually defined, the EC50 is the concentration needed to bring the measured effect to its halfway point. As for `CC(=O)OC(C)C[N+](C)(C)C` (centres unmarked) [methacholine], the “effect on transepithelial potential (Vt) during pre-contraction” value in experiment [1] (MCh 3×10^−7M in the extraluminal bath) is “induced transepithelial hyperpolarization”. Moreover, the 50% effective concentration (EC50) in experiment [2] (Cavia porcellus, methacholine in the extraluminal bath, read-out: EC50 for pre-contracting the trachea) amounted to 300 nM.
